Patent US12624012B2, “14-chloro-β-elemene nitric oxide donor derivative and preparation method and use thereof” (HANGZHOU NORMAL UNIVERSITY, priority 2021, dated 2026)
Values belong to the molecule of their own block, whether it stands above or below them.

Tests used:
[1] = In vitro NO release test (incubation with L-cysteine, OD at 550 nm); details: 100 μM solution with cysteine solution, 37° C.
Procedure: • (1) Sodium nitrite solutions with different concentrations were prepared. A calibration curve was drawn. • (2) The sample was treated. A 100 μM solution was prepared. 2.5 mL of the prepared compound solution and 2.5 mL of the cysteine solution were taken and incubated at 37° C. for 120 min, and the resulting mixture was sampled at different time points. • (3) A blank hole and a standard hole were set. 160 μL of the sample was collected and mixed evenly with 0.08 mL of a developer and stood at 37° C. for 15 min. At λ=550 nm, the OD value of absorbance was measured by the enzyme marker. The NO release levels were obtained by substituting the value into the standard curve.

SW620 = assay: In vitro anti-tumor activity evaluation test (CCK-8), SW620; assay type: cell-based, human; details: Homo sapiens, SW-620, SW620, 72 h; for inhibition at 1 µM: read-out: Inhibitory rates against tumor cell lines
Procedure: (§1) • (1) Cells were digested and counted. Cell suspensions (H520, SW620 5.0×10^4 cells/mL, and U87MG 3.5×10^4 cells/mL) were prepared. 100 μL of cell suspension was added to each well of a 96-well cell culture plate. • (2) The 96-well cell culture plate was incubated in a 37° C., 5%, CO2 incubator for 24 h. • (3) A drug was diluted with a culture medium to a desired working solution concentration. 100 μL of the corresponding drug-containing culture medium was added to each well. At the same time, a negative control group and a positive control group were set up. • (4) The 96-well cell culture plate was incubated in a 37° C., 5%, CO2 incubator for 72 h. • (5) The 96-well plate was stained with CCK-8, and at λ=450 nm, the OD value was determined. • 1) 10 μL of CCK-8 was added to each well. The culture plate continued to be incubated in the incubator for 2-3 h. • 2) The culture plate was rocked for 10 min to gently mix and remove air bubbles from the 96-well plate. • 3) At λ=450 nm, the OD value of each well was read by the enzyme marker, and the inhibitory rates were calculated. • (6) According to the following equation (1), the growth inhibitory rate of the tumor cells was obtained. The obtained results were substituted into an IC 50 calculation software SPSS17.0 to find out the IC50 value.

U87MG = assay: In vitro anti-tumor activity evaluation test (CCK-8), U87MG; assay type: cell-based, human; details: Homo sapiens, U-87 MG, U87MG, 72 h; for inhibition at 1 µM: read-out: Inhibitory rates against tumor cell lines; for IC50: read-out: IC50 against different tumor cell lines
Procedure: as §1

NCI-H520 = assay: In vitro anti-tumor activity evaluation test (CCK-8), NCI-H520; assay type: cell-based, human; details: Homo sapiens, NCI-H520, 72 h; for inhibition at 1 µM: read-out: Inhibitory rates against tumor cell lines; for IC50: read-out: IC50 against different tumor cell lines
Procedure: as §1

IC50 (SW620; read-out: IC50 against different tumor cell lines): 1090 ± 40 nM | IC50 (U87MG): 811 ± 16 nM
SMILES: C=C[C@]1(C)CC[C@@H](C(=C)CN2CCCC(COC(=O)CCC(=O)OCCOc3no[n+]([O-])c3S(=O)(=O)c3ccccc3)C2)C[C@H]1C(=C)CCl (stereo partly drawn) [Example 17, 4-(2-((4-((1-(2-((1R,3R,4S)-3-(3-chloroprop-1-en-2-yl)-4-methyl-4-vinylcyclohexyl)allyl)piperidin-3-yl)methoxyl)-4-oxobutanoyl)oxy)ethyoxyl)-3-(phenylsulfonyl)-1,2,5-oxadiazole 2-oxide]
NO-release concentrations ([1]; 5 min): 4.84 µM | NO-release concentrations ([1]; 10 min): 5.66 µM | NO-release concentrations ([1]; 20 min): 6.95 µM | NO-release concentrations ([1]; 30 min): 8.44 µM | NO-release concentrations ([1]; 60 min): 12.43 µM | NO-release concentrations ([1]; 90 min): 17.81 µM | NO-release concentrations ([1]; 120 min): 22.91 µM | inhibition at 1 µM (SW620): 38.3 ± 3% | inhibition at 1 µM (U87MG): 51 ± 2.2% | inhibition at 1 µM (NCI-H520): 45.4 ± 1.9%

IC50 (NCI-H520): 1210 ± 152 nM
SMILES: C=C[C@]1(C)CC[C@@H](C(=C)CN2CCCC(COC(=O)CCCC(=O)OCCOc3no[n+]([O-])c3S(=O)(=O)c3ccccc3)C2)C[C@H]1C(=C)CCl (stereo partly drawn) [Example 18, 4-(2-((5-((1-(2-((1R,3R,4S)-3-(3-chloroprop-1-en-2-yl)-4-methyl-4-vinylcyclohexyl)allyl)piperidin-3-yl)methoxyl)-5-oxopentanoyl)oxy)ethyoxyl)-3-(phenylsulfonyl)-1,2,5-oxadiazole 2-oxide]
NO-release concentrations ([1]; 5 min): 8.89 µM | NO-release concentrations ([1]; 10 min): 10.18 µM | NO-release concentrations ([1]; 20 min): 12.42 µM | NO-release concentrations ([1]; 30 min): 14.32 µM | NO-release concentrations ([1]; 60 min): 21.50 µM | NO-release concentrations ([1]; 90 min): 32.40 µM | NO-release concentrations ([1]; 120 min): 42.83 µM | inhibition at 1 µM (SW620): 46.1 ± 0.9% | inhibition at 1 µM (U87MG): 48.3 ± 1.5% | inhibition at 1 µM (NCI-H520): 43.9 ± 1%

IC50 (U87MG): 985 ± 12 nM
SMILES: C=C[C@]1(C)CC[C@@H](C(=C)CN2CCCC(COC(=O)CCC(=O)OCC#CCOc3no[n+]([O-])c3S(=O)(=O)c3ccccc3)C2)C[C@H]1C(=C)CCl (stereo partly drawn) [Example 19, 4-((4-((4-((1-(2-((1R,3R,4S)-3-(3-chloroprop-1-en-2-yl)-4-methyl-4-vinylcyclohexyl)allyl)piperidin-3-yl)methoxyl)-4-oxobutanoyl)oxy)but-2-yn-1-yl)oxy)-3-(phenylsulfonyl)-1,2,5-oxadiazole 2-oxide]
NO-release concentrations ([1]; 5 min): 13.76 µM | NO-release concentrations ([1]; 10 min): 15.87 µM | NO-release concentrations ([1]; 20 min): 19.21 µM | NO-release concentrations ([1]; 30 min): 22.88 µM | NO-release concentrations ([1]; 60 min): 34.60 µM | NO-release concentrations ([1]; 90 min): 48.73 µM | NO-release concentrations ([1]; 120 min): 56.52 µM | inhibition at 1 µM (SW620): 40.6 ± 2.8% | inhibition at 1 µM (U87MG): 41.9 ± 1.1% | inhibition at 1 µM (NCI-H520): 46.1 ± 2.7%

IC50 (U87MG): 1110 ± 52 nM | IC50 (NCI-H520): 1180 ± 66 nM
SMILES: C=C[C@]1(C)CC[C@@H](C(=C)CN2CCCC(COC(=O)CCCC(=O)OCC#CCOc3no[n+]([O-])c3S(=O)(=O)c3ccccc3)C2)C[C@H]1C(=C)CCl (stereo partly drawn) [Example 20, 4-((4-((5-((1-(2-((1R,3R,4S)-3-(3-chloroprop-1-en-2-yl)-4-methyl-4-vinylcyclohexyl)allyl)piperidin-3-yl)methoxyl)-5-oxopentanoyl)oxy)but-2-yn-1-yl)oxy)-3-(phenylsulfonyl)-1,2,5-oxadiazole 2-oxide]
NO-release concentrations ([1]; 5 min): 15.19 µM | NO-release concentrations ([1]; 10 min): 17.57 µM | NO-release concentrations ([1]; 20 min): 21.33 µM | NO-release concentrations ([1]; 30 min): 25.52 µM | NO-release concentrations ([1]; 60 min): 39.29 µM | NO-release concentrations ([1]; 90 min): 58.12 µM | NO-release concentrations ([1]; 120 min): 77.28 µM | inhibition at 1 µM (SW620): 43.2 ± 1.8% | inhibition at 1 µM (U87MG): 53.9 ± 0.6% | inhibition at 1 µM (NCI-H520): 44.5 ± 2.4%

IC50 (U87MG): 926 ± 52 nM
SMILES: C=C[C@]1(C)CC[C@@H](C(=C)CN2CCN(CCOC(=O)CCC(=O)OCCOc3no[n+]([O-])c3S(=O)(=O)c3ccccc3)CC2)C[C@H]1C(=C)CCl [Example 21, 4-(2-((4-(2-(4-(2-((1R,3R,4S)-3-(3-chloroprop-1-en-2-yl)-4-methyl-4-vinylcyclohexyl)allyl)piperazin-1-yl)ethyoxyl)-4-oxobutanoyl)oxy)ethyoxyl)-3-(phenylsulfonyl)-1,2,5-oxadiazole 2-oxide]
NO-release concentrations ([1]; 5 min): 0.08 µM | NO-release concentrations ([1]; 10 min): 0.41 µM | NO-release concentrations ([1]; 20 min): 0.99 µM | NO-release concentrations ([1]; 30 min): 1.64 µM | NO-release concentrations ([1]; 60 min): 2.98 µM | NO-release concentrations ([1]; 90 min): 6.43 µM | NO-release concentrations ([1]; 120 min): 10.20 µM | inhibition at 1 µM (SW620): 43.6 ± 2.5% | inhibition at 1 µM (U87MG): 52.6 ± 1% | inhibition at 1 µM (NCI-H520): 47.3 ± 2.6%

IC50 (U87MG): 372 ± 6 nM | IC50 (NCI-H520): 962 ± 54 nM
SMILES: C=C[C@]1(C)CC[C@@H](C(=C)CN2CCN(CCOC(=O)CCCC(=O)OCCOc3no[n+]([O-])c3S(=O)(=O)c3ccccc3)CC2)C[C@H]1C(=C)CCl [Example 22]
NO-release concentrations ([1]; 5 min): 0.33 µM | NO-release concentrations ([1]; 10 min): 0.90 µM | NO-release concentrations ([1]; 20 min): 1.35 µM | NO-release concentrations ([1]; 30 min): 1.91 µM | NO-release concentrations ([1]; 60 min): 4.05 µM | NO-release concentrations ([1]; 90 min): 7.20 µM | NO-release concentrations ([1]; 120 min): 10.51 µM | inhibition at 1 µM (SW620): 42.8 ± 0.5% | inhibition at 1 µM (U87MG): 52.4 ± 2% | inhibition at 1 µM (NCI-H520): 44.1 ± 2.4%

SMILES: C=C[C@]1(C)CC[C@@H](C(=C)CN2CCN(CCOC(=O)CCC(=O)OCC#CCOc3no[n+]([O-])c3S(=O)(=O)c3ccccc3)CC2)C[C@H]1C(=C)CCl [Example 23, 4-((4-((4-(2-(4-(2-((1R,3R,4S)-3-(3-chloroprop-1-en-2-yl)-4-methyl-4-vinylcyclohexyl)allyl)piperazin-1-yl)ethyoxyl)-4-oxobutanoyl)oxy)but-2-yn-1-yl)oxy)-3-(phenylsulfonyl)-1,2,5-oxadiazole 2-oxide]
NO-release concentrations ([1]; 5 min): 4.74 µM | NO-release concentrations ([1]; 10 min): 5.95 µM | NO-release concentrations ([1]; 20 min): 7.49 µM | NO-release concentrations ([1]; 30 min): 7.63 µM | NO-release concentrations ([1]; 60 min): 8.44 µM | NO-release concentrations ([1]; 90 min): 13.57 µM | NO-release concentrations ([1]; 120 min): 17.82 µM | inhibition at 1 µM (SW620): 21.2 ± 2.1% | inhibition at 1 µM (U87MG): 33.4 ± 1.5% | inhibition at 1 µM (NCI-H520): 30.3 ± 2.9%

IC50 (U87MG): 960 ± 75 nM | IC50 (NCI-H520): 1062 ± 2 nM
SMILES: C=C[C@]1(C)CC[C@@H](C(=C)CN2CCN(CCOC(=O)CCCC(=O)OCC#CCOc3no[n+]([O-])c3S(=O)(=O)c3ccccc3)CC2)C[C@H]1C(=C)CCl [Example 24, 4-((4-((5-(2-(4-(2-((1R,3R,4S)-3-(3-chloroprop-1-en-2-yl)-4-methyl-4-vinylcyclohexyl)allyl)piperazin-1-yl)ethyoxyl)-5-oxyglutaryl)oxy)but-2-yn-1-yl)oxy)-3-(phenylsulfonyl)-1,2,5-oxadiazole 2-oxide]
NO-release concentrations ([1]; 5 min): 10.64 µM | NO-release concentrations ([1]; 10 min): 11.37 µM | NO-release concentrations ([1]; 20 min): 12.38 µM | NO-release concentrations ([1]; 30 min): 13.68 µM | NO-release concentrations ([1]; 60 min): 18.24 µM | NO-release concentrations ([1]; 90 min): 25.90 µM | NO-release concentrations ([1]; 120 min): 34.64 µM | inhibition at 1 µM (SW620): 43.2 ± 5.5% | inhibition at 1 µM (U87MG): 50.3 ± 1.2% | inhibition at 1 µM (NCI-H520): 46.8 ± 2.1%
